The numbers were not newly measured in patent US20060172014A1, “Treatment of lung cancer with active vitamin D compounds in combination with other treatments” (Novacea, Inc., priority 2003, published 2006), which cites them from elsewhere.

Data set [1] deals with patients with refractory malignancies. The conditions noted are these: weekly HDPA of calcitriol; Beer et al.

As for `C=C1/C(=C\C=C2/CCC[C@]3(C)[C@@H]([C@H](C)CCCC(C)(C)O)CC[C@@H]23)C[C@@H](O)C[C@@H]1O` [calcitriol, 1α,25-dihydroxyvitamin D3], in data set [1], the Dose-limiting toxicity entry is “no dose-limiting toxicity” and the “Mean peak calcitriol levels” value is recorded as “within the therapeutic range”. In addition, the “Growth of lung cancer cell line” value in the data set with lung cancer cell line (cell line containing high levels of vitamin D receptor) is on record as “inhibit the growth”. Besides, the “Growth of lung cancer cell lines” value in the data set on lung cancer cell line (cell lines having insignificant levels of the receptor) is “not”.
